Marks after values point to notes of the source that are not given here. Peptide text beside a SMILES is read from it.

The test system of one test is A375 cells. Kind of test: A375 cell viability, CellTiterGlo (x10A). The conditions noted are these: peptide 2 uM, Buffer, 72 hours. The test is classed as cell-based. The procedure:
Immune modulation functions of immodulator peptides have great potential untility in the field of cancer. A375 cell line was obtained from American Type Culture Collection (ATCC). They were grown in a T-75 flask in DMEM Medium containing 10% fetal bovine serum and penicillin-streptomycin at 37° C. in a humidified, 5% CO2 incubator. Cells ([…], 2,000 cells/well) were plated in a 96-well plate and incubated overnight at 37° C. in a humidified, 5% CO2 incubator. Next day, […] of compounds were added (quadruplicate wells). After 72 hour incubation with the compound, cell viability was measured in a luminometer after the addition of […] CellTiterGlo reagent (Promega Inc, Madison, WI) as recommended by the manufacturer.
Experiment x10A. Anti-cancer activity of immodulator peptides on A375 cells. A 96-well plate was seeded with 2,000 A375 cells per well in DMEM medium containing 10% FBS and PenStrep. After 24 hrs at 37 deg C., compounds and peptides were added (each treatment done in quadruplicate). After a further 72 hours incubation, 100 uL/well of CTG assay reagent purchased from Promega Inc. (Madison, WI) was added. Plate was read after 10 minutes, as recommended by the manufacturer. Peptides were added at 2 uM. The results of this experiment are shown below, expressed as percent survival ofA375 cells.

Test [1] can be described thus: Competition binding assay to metal-charged NTA-coated plates (x2B b). The conditions noted are these: PBS on calcium = 100. The procedure: NTA-metal-affinity fluorescence assay was performed using 96-well NTA-metal-coated plates readily available from commercial sources such as Qiagen (Germantown, MD). NTA was charged with ferrous or ferric iron, zinc, copper, calcium, vanadium, ruthenium, cobalt, titanium, manganese or other metals. 400 ng of FITC-labeled immodulator peptide (or biotinylated immodulator peptide complexed to Alexa-488-labeled streptavidin) in PBS buffer was added per plate. After incubation at room temperature for 60 minutes, excess peptide was washed off and peptide was detected by measuring fluorescence (excitation 490 nm, emmission 525 nm) in a fluorometer. • (a) Using FITC-labeled IM3 peptide (1 ug/well) in the fluorescent binding assay: • EDTA-treated control: 2,251±1,186 • Ferrous iron: 170,441±11,264 (p<0.001)* • Copper: 13,644±5566 (p<0.05)* • Calcium: 48,822±11,990 (p<0.01)* • *p values are relative to EDTA-treated control • (b) Competition binding assay to ferrous iron, calcium, copper and zinc-charged NTA-coated plates using FITC-labeled IM3 peptide (0.5 uM) and 8× (4 uM) unlabelled competitor peptides IM3N1, IM3N2 (*all comparisons to PBS control are p<0.01); # fluorescent value of binding to […] was set at 100.

Test [2] can be described thus: FITC-PI(4,5)P2 binding to plate-bound peptide with calcium (x9A). On the procedure:
Immodulator peptides IM1, IM3 and IM5 (400 ng/well) in PBS were bound to streptavidin-coated 96-well plates at room temperature for 60 minutes, in the presence or absence of 500 uM calcium chloride. Each well also received 200 ng cold PPI plus 10 ng FITC-labeled PI(4,5)P2 or PI(4)P1. The tables below show the relative fluorescence (with/without calcium background) expressed as a percentage of the highest binder, FITC-PI(4,5)P2+cold PI(3,5)P2, which was 2,496 fluorescence units. Background binding without calcium was, in all cases, 200-300 fluorescence units.

Test [3] in a line: FITC-PI(4,5)P2 binding at pH5.2 with metals and cold PPI (x9D). On the procedure:
To a streptavidin-coated 96-well plate, 400 ng peptide IM3 or IM5 were bound per well. Each well received 100 uL of sodium acetate buffer pH5.2 containing 500 uM EDTA, Calcium Chloride, Zinc Chloride or Ferric Chloride. Each well additionally contained 50 ng FITC-PI(4,5)P2 plus 2 ug of either cold PI(3,4)P2, PI(4,5)P2, PI(3,5)P2 or buffer. All assays were done in sextuplicate. After incubation at room temperature for 60 mins, wells were washed and counted in a fluorometer set at FITC excitation/emmission wavelengths.

The target in test [4] is T1, DNA-binding domain (DBD) of RXR-alpha (Homo sapiens, UniProt P19793).
T1 construct: purchased Abcam, Cambridge, MA
T1 sequence (P19793 111-228): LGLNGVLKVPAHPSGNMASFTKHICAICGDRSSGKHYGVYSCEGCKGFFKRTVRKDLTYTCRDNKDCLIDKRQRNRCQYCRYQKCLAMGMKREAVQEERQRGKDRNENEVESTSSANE
Kind of test: Binding to RXRa-DBD with or without ferric iron (x3B). The procedure: Experiment x3B. Binding of immodulator peptides to DNA-binding domain (DBD) of RXR-alpha, with or without ferric iron. 100 ng/well recombinant RXRa-DBD (Abcam, Cambridge, MA) was adsorbed to wells of a 96-well plate for 60 minutes at RT, then blocked with 200 uL 1% BSA in PBS buffer overnight. Plate was washed and 800 ng/well Streptavidin-Alexa 488 conjugate (SA488)-labelled IM peptide was added, with or without ferric chloride (5 uM) or 5-fold excess RXRa-DBD. The plate was incubated for 2 hours at room temperature, washed and counted in a standard fluorometer (excitation/emission 485/525 nm).

[5] abbreviates: cold PPI: None, 500 uM calcium chloride.

For the molecule `CC(C)C[C@H](NC(=O)[C@H](C)NC(=O)[C@@H]1CCCN1C(=O)[C@H](Cc1c[nH]cn1)NC(=O)[C@H](CS)NC(=O)[C@H](CCC(N)=O)NC(=O)[C@H](CCCCN)NC(=O)[C@@H]1CCCN1C(=O)[C@H](Cc1c[nH]cn1)NC(=O)[C@H](Cc1ccccc1)NC(=O)[C@H](CC(N)=O)NC(=O)CNC(=O)[C@H](CC(N)=O)NC(=O)[C@@H](N)CCCNC(=N)N)C(=O)N[C@@H](CC(=O)O)C(=O)NCC(=O)N[C@@H](CCC(N)=O)C(=O)N[C@@H](CCCNC(=N)N)C(=O)NCC(=O)N[C@@H](CCCCN)C(=O)N[C@@H](CS)C(=O)N[C@@H](Cc1c[nH]c2ccccc12)C(=O)O` [IM4] (H-RNGNFHPKQCHPALDGQRGKCW-OH; N-terminus and C-terminus assumed), the “percent survival of A375 cells” value in the test on A375 cells stood at 98.8%.
As for “RGVTEDYLRLETLVQKVVSKGFYKKKQCRPSKGRKRGFCW [IM3N1]”, the “FITC-IM3 fluorescence with competitor” value is on record as 14.6 ± 1.4* in test [1] (Calcium, 0.5 uM FITC-IM3, 8x (4 uM) unlabelled competitor); 9.2 ± 1.5* in test [1] (Copper, 8x (4 uM) unlabelled competitor); 20.4 ± 1.0* in test [1] (Ferrous iron, 8x (4 uM) unlabelled competitor); 15.7 ± 1.3* in test [1] (Zinc, 8x (4 uM) unlabelled competitor).
Consider `CSCC[C@H](NC(=O)[C@H](CO)NC(=O)[C@@H](NC(=O)[C@H](CCC(=O)O)NC(=O)[C@H](CS)NC(=O)[C@H](CCC(N)=O)NC(=O)[C@H](CCCNC(=N)N)NC(=O)[C@H](CO)NC(=O)[C@H](Cc1c[nH]cn1)NC(=O)[C@H](Cc1ccc(O)cc1)NC(=O)[C@H](Cc1ccccc1)NC(=O)CNC(=O)[C@H](CC(N)=O)NC(=O)[C@@H](N)CCCCN)[C@@H](C)O)C(=O)N[C@@H](CC(=O)O)C(=O)NCC(=O)N[C@@H](CCC(=O)O)C(=O)N[C@@H](C)C(=O)NCC(=O)N[C@@H](CC(C)C)C(=O)N[C@@H](CS)C(=O)N[C@@H](Cc1c[nH]c2ccccc12)C(=O)O` [IM1] (H-KNGFYHSRQCETSMDGEAGLCW-OH; N-terminus and C-terminus assumed), for which, in the test with A375 cells, the “percent survival of A375 cells” value was 102.1%. The “relative fluorescence, FITC-PI(4,5)P2 bound” value was 0.1 percentage of the highest binder in test [2] (cold PPI: 3,4,5-P3, calcium); 1.1 percentage of the highest binder in test [2] (cold PPI: 3,4-P2, calcium); 4.3 percentage of the highest binder in test [2] (cold PPI: 3,5-P2, calcium); 3.1 percentage of the highest binder in test [2] (cold PPI: 3-P1, calcium); 0.8 percentage of the highest binder in test [2] (cold PPI: 4,5-P2, calcium); 1.3 percentage of the highest binder in test [2] (cold PPI: 4-P1, calcium). Moreover, the “relative fluorescence, FITC-PI(4,5)P2 bound” value is recorded as 0.5 percentage of the highest binder in test [2] (cold PPI: 5-P1, calcium) and 1.6 percentage of the highest binder in test [2] (setting [5]).
As for `CSCC[C@H](NC(=O)[C@H](CCCCN)NC(=O)[C@H](CS)NC(=O)[C@H](CCC(N)=O)NC(=O)[C@H](CCCCN)NC(=O)[C@H](CC(C)C)NC(=O)[C@H](CC(N)=O)NC(=O)[C@H](Cc1ccc(O)cc1)NC(=O)[C@H](CC(C)C)NC(=O)CNC(=O)[C@H](Cc1c[nH]cn1)NC(=O)[C@@H](N)CCCCN)C(=O)N[C@@H](CO)C(=O)N[C@@H](CC(C)C)C(=O)N[C@@H](CC(N)=O)C(=O)NCC(=O)N[C@@H](CCC(N)=O)C(=O)N[C@@H](CCCNC(=N)N)C(=O)NCC(=O)N[C@@H](CCC(=O)O)C(=O)N[C@@H](CS)C(=O)N[C@@H](Cc1c[nH]c2ccccc12)C(=O)O` [IM2], the “percent survival of A375 cells” value in the test on A375 cells turned out to be 99.0%.
As to `CC[C@H](C)[C@H](NC(=O)CNC(=O)[C@H](CCCNC(=N)N)NC(=O)[C@H](CCCCN)NC(=O)[C@H](CCCNC(=N)N)NC(=O)CNC(=O)[C@H](CCCNC(=N)N)NC(=O)[C@H](CO)NC(=O)[C@@H]1CCCN1C(=O)[C@H](CCCCN)NC(=O)[C@H](CS)NC(=O)[C@H](CCC(N)=O)NC(=O)[C@H](CCCCN)NC(=O)[C@H](CCCNC(=N)N)NC(=O)[C@H](CCCCN)NC(=O)[C@H](Cc1ccc(O)cc1)NC(=O)[C@H](Cc1ccccc1)NC(=O)CNC(=O)[C@H](CCCCN)NC(=O)[C@@H](N)CCCNC(=N)N)C(=O)N[C@@H](CS)C(=O)N[C@@H](Cc1c[nH]c2ccccc12)C(=O)O` [IM5] (H-RKGFYKRKQCKPSRGRKRGICW-OH; N-terminus and C-terminus assumed), the “relative fluorescence, FITC-PI(4,5)P2 bound” value in test [2] (cold PPI: 3,4,5-P3, calcium) is listed as 0.2 percentage of the highest binder; in test [2] (cold PPI: 3,4-P2, calcium), 12.3 percentage of the highest binder; in test [2] (cold PPI: 3,5-P2, calcium), 16.9 percentage of the highest binder; in test [2] (cold PPI: 3-P1, calcium) it was 0.3 percentage of the highest binder; in test [2] (cold PPI: 4,5-P2, calcium) it was 7.6 percentage of the highest binder; in test [2] (cold PPI: 4-P1, calcium), 2.3 percentage of the highest binder. Further, the “relative fluorescence, FITC-PI(4,5)P2 bound” value in test [2] (cold PPI: 5-P1, calcium) is given as 2.7 percentage of the highest binder; in test [2] (setting [5]), 2.6 percentage of the highest binder. For the same molecule, the “fluorescence, FITC-PI(4,5)P2 bound” value is 234 ± 34 in test [3] (Buffer, Calcium); 88 ± 23 in test [3] (Buffer, EDTA); 1,111 ± 167 in test [3] (Buffer, Ferric Iron); 236 ± 55 in test [3] (Buffer, Zinc); 205 ± 50 in test [3] (Cold PI(3,4)P2, Calcium); 150 ± 81 in test [3] (Cold PI(3,4)P2, EDTA). Besides, the “fluorescence, FITC-PI(4,5)P2 bound” value in test [3] (Cold PI(3,4)P2, Ferric Iron) is reported as 2,150 ± 420; in test [3] (Cold PI(3,4)P2, Zinc), 151 ± 51; in test [3] (Cold PI(3,5)P2, Calcium), 489 ± 146; in test [3] (Cold PI(3,5)P2, EDTA), 205 ± 71; in test [3] (Cold PI(3,5)P2, Ferric Iron), 2,026 ± 176; in test [3] (Cold PI(3,5)P2, Zinc) it was 353 ± 29. Also, the “fluorescence, FITC-PI(4,5)P2 bound” value is 163 ± 80 in test [3] (Cold PI(4,5)P2, Calcium); 81 ± 95 in test [3] (Cold PI(4,5)P2, EDTA); 1,447 ± 304 in test [3] (Cold PI(4,5)P2, Ferric Iron); 104 ± 21 in test [3] (Cold PI(4,5)P2, Zinc). In addition, the fluorescence was 228.0 ± 44.9 in test [4] (100 ng/well RXRa-DBD, no FeCl3, no excess RXRa-DBD); 303.0 ± 68.3 in test [4] (FeCl3 5 uM, 5X excess RXRa-DBD); 552.7 ± 86.8^ in test [4] (FeCl3 5 uM, no excess RXRa-DBD).

For the origin of these results see patent US12102685B2, “Immodulator peptides covalently modified with small molecules” (priority 2020, dated 2024).
